Assay results from US20230219886A1, “NOVEL SELENO-NSAID ANALOGS AND USES THEREOF” (THE PENN STATE RESEARCH FOUNDATION, priority 2020, published 2023).
Read-outs that look alike come from different tables or passages of the source.

Key:
[1] = tested on: PANC-1 (pancreatic carcinoma); assay: MTT cell viability assay, Panc-1; conditions: Homo sapiens, PANC-1, 48 h, read-out: cell viability
Protocol: (§1) Cell Culture Conditions. The cell lines were obtained from the American Type Culture Collection (ATCC). PANC-1 and Caco-2 cell lines were maintained in DMEM medium (Gibco); HT-29, HCT-116 and RKO cells were maintained in McCoy's 5A medium (Gibco); and DU-145 and H1299 cells were maintained in RPMI 1640 medium (Gibco), supplemented with 10% fetal bovine serum (FBS; Gibco) and 1% antibiotics (10.00 units/mL penicillin and 10.00 mg/mL streptomycin; Gibco). Cells were preserved in tissue culture flasks at 37° C. and 5% CO2. Culture medium was replaced every three days.
(§2) Cell Viability Assay. The effect of each compound on cell viability was tested using the MTT assay (81). Briefly, 9000 cells/well were grown in 96-well plates for 12 h. Then these cells were incubated with either DMSO (control) or nine different concentration between 0.01-50 μM of the test compounds for 24, 48, and 72 h. Three hours before the termination point, 20 μL of MTT were added to measure cellular viability. The resultant formazan crystals were dissolved in 50 μL of DMSO, and absorbance was measured at 570 nm and 630 nm wavelengths. IC50, GI50, TGI and LC50 values were calculated using OriginPro 8.5.1.
(§3) Evaluation of the antiproliferative activities of the novel molecules. […] These four cell lines were treated with each compound at three concentrations (5, 25 and 50 μM) for 48 h.

HT-29 (CRC) = assay: MTT cell viability assay, HT-29; conditions: for CC50: read-out: LC50; for viability at 5 µM / viability at 25 µM / viability at 50 µM: read-out: cell viability
Protocol: as §1, §2, §3

[2] = tested on: DU-145 (prostate carcinoma); assay: MTT cell viability assay, DU-145; conditions: Homo sapiens, DU-145, 48 h, read-out: cell viability
Protocol: as §1, §2, §3

H1299 (lung carcinoma) = assay: MTT cell viability assay, H1299; conditions: Homo sapiens, NCI-H1299, 48 h, read-out: cell viability
Protocol: as §1, §2, §3

HCT-116 CRC cells = assay: MTT cell viability assay, HCT-116; assay type: cell-based, human; conditions: Homo sapiens, read-out: IC50
Protocol: as §1, §2

CACO-2 CRC cells = assay: cells; conditions: Homo sapiens
Protocol: as §1, §2

RKO CRC cells = assay: cells; conditions: Homo sapiens
Protocol: as §1, §2

[3] = tested on: human CRC cells (HT-29, HCT-116, RKO and CACO-2); assay: MTT assay, panel of four CRC cells; assay type: cell-based; conditions: 4 CRC cells
Protocol: Cell Culture Conditions. […] Culture medium was replaced every three days.
Evaluation of the antiproliferative activity of methylseleno-NSAIDs, MSA and NSAIDs alone or in combination. […] CRC cells were treated for 24, 48 and 72 h at different concentrations to stablish the dose-response curves.

NCI-60 cell lines = assay: NCI-60 one-dose screen, mean of all cell lines; assay type: cell-based, human; conditions: 10 μM, 48 h
Text: (§4) NCI-60 Analysis. 1a and 6a were submitted to National Cancer Institute's (NCI) Developmental Therapeutics Program (DTP) where the cytotoxicity profile was investigated across their 60 human cancer cell line panel according to the protocol available on multiple sources (71-73, 83). The COMPARE algorithm (73), was utilized to evaluate the activity profile of 6a in comparison to those of known cytotoxins established in marketed drugs and standard agent data sets in order to correlate plausible modes of action.
(§5) NCI-60 analysis. Compounds 1a, 5a and 6a were submitted to the National Cancer Institute's (NCI) Developmental Therapeutics Program (DTP). NCI-60 program consists in a panel of 60 human cancer cell lines from a variety of cancers, including refractory tumors such as lung, ovarian, CRC, breast, brain and renal cancers, and melanomas together with more treatable cancers such as leukemias (71). 1a [NSC: 803071], 5a [NSC: 820332] and 6a [NSC: 811013] were initially screened at one dose (10 μM) at 48 h. Then, NCI selected only compound 6a to perform dose-response characterization (72).

SK-MEL-28 (melanoma) = assay: NCI-60 one-dose screen, SK-MEL-28; assay type: cell-based, human; conditions: SK-MEL-28, 10 μM, 48 h
Text: as §4, §5

DU-145 (prostate) = assay: NCI-60 one-dose screen, DU-145; assay type: cell-based, human; conditions: DU-145, 10 μM, 48 h
Text: as §4, §5

TK-10 (renal) = assay: NCI-60 one-dose screen, TK-10; assay type: cell-based, human; conditions: TK-10, 10 μM, 48 h
Text: as §4, §5

BT-549 (breast) = assay: NCI-60 one-dose screen, BT-549; assay type: cell-based, human; conditions: BT-549, 10 μM, 48 h
Text: as §4, §5

COc1ccc2c(c1)c(CC(=O)[Se]C)c(C)n2C(=O)c1ccc(Cl)cc1 [Compound 5a, Se-methyl 2-(1-(4-chlorobenzoyl)-5-methoxy-2-methyl-1H-indol-3-yl)ethane-selenoate]
viability at 5 µM [1]: 61.9 ± 4.4% | viability at 25 µM [1]: 66.6 ± 1.9% | viability at 50 µM [1]: 60.2 ± 5.5% | increase on cytotoxic potency compared with parent NSAID scaffolds (HT-29 (CRC)): three-fold | TGI (HT-29 (CRC); HT-29, 24 h): >50 µM | TGI (HT-29 (CRC); HT-29, 48 h): 0.6 ± 0.5 µM | TGI (HT-29 (CRC); HT-29, 72 h): 5.1 ± 2.2 µM | GI50 (HT-29 (CRC); Homo sapiens, HT-29, 24 h): 4.9 ± 2.2 µM | IC50 (HT-29 (CRC); Homo sapiens, HT-29, 24 h): > 50 µM | CC50 (HT-29 (CRC); Homo sapiens, HT-29, 24 h): > 50 µM | GI50 (HT-29 (CRC); Homo sapiens, HT-29, 48 h): 3.2 ± 1.9 µM | IC50 (HT-29 (CRC); Homo sapiens, HT-29, 48 h): 3.3 ± 0.9 µM | CC50 (HT-29 (CRC); Homo sapiens, HT-29, 48 h): > 50 µM | viability at 5 µM (HT-29 (CRC); Homo sapiens, HT-29, 48 h): 26.3 ± 2.9% | viability at 25 µM (HT-29 (CRC); Homo sapiens, HT-29, 48 h): 17.9 ± 3.7% | viability at 50 µM (HT-29 (CRC); Homo sapiens, HT-29, 48 h): 18 ± 3.5% | GI50 (HT-29 (CRC); Homo sapiens, HT-29, 72 h): 2.9 ± 0.8 µM | IC50 (HT-29 (CRC); Homo sapiens, HT-29, 72 h): 3.3 ± 0.3 µM | CC50 (HT-29 (CRC); Homo sapiens, HT-29, 72 h): > 50 µM | cytotoxicity at 5 µM (HT-29 (CRC); Homo sapiens, HT-29, read-out: inhibition in cell viability): 75 to 80% | viability at 5 µM [2]: 52.1 ± 1.5% | viability at 25 µM [2]: 34.5 ± 3% | viability at 50 µM [2]: 27.4 ± 1.7% | viability at 5 µM (H1299 (lung carcinoma)): 49.5 ± 9.4% | viability at 25 µM (H1299 (lung carcinoma)): 37 ± 5.6% | viability at 50 µM (H1299 (lung carcinoma)): 32.4 ± 5.8% | IC50 (HCT-116 CRC cells; HCT-116, 24 h): > 50 µM | IC50 (HCT-116 CRC cells; HCT-116, 48 h): 5.6 ± 2.6 µM | IC50 (HCT-116 CRC cells; HCT-116, 72 h): 18.7 ± 4.9 µM | IC50 (CACO-2 CRC cells; Caco-2, 24 h): > 50 µM | IC50 (CACO-2 CRC cells; Caco-2, 48 h): 4.2 ± 1.7 µM | IC50 (CACO-2 CRC cells; Caco-2, 72 h): 5.5 ± 1.1 µM | IC50 (RKO CRC cells; 24 h): > 50 µM | IC50 (RKO CRC cells; 48 h): 10.1 ± 6.9 µM | IC50 (RKO CRC cells; 72 h): 11.6 ± 5.9 µM | anti-tumoral activity versus MSA and NSAIDs as single agents or combined [3]: higher anti-tumoral activity | GP mean value towards all cell lines (NCI-60 cell lines): 4.01% | GP (SK-MEL-28 (melanoma)): −7.85% | GP (DU-145 (prostate)): −7.90% | GP (TK-10 (renal)): −58.40% | GP (BT-549 (breast)): −80.79%

CC1=C(CC(=O)O)c2cc(F)ccc2/C1=C\c1ccc([S+](C)[O-])cc1 (centres unmarked) [Sulin, sulindac, reference compound]
viability at 5 µM [1]: 88 ± 22.5% | viability at 25 µM [1]: 90.6 ± 28.9% | viability at 50 µM [1]: 84.5 ± 32.7% | TGI (HT-29 (CRC); HT-29, 24 h): >50 µM | TGI (HT-29 (CRC); HT-29, 48 h): >50 µM | TGI (HT-29 (CRC); HT-29, 72 h): >50 µM | GI50 (HT-29 (CRC); Homo sapiens, HT-29, 24 h): > 50 µM | IC50 (HT-29 (CRC); Homo sapiens, HT-29, 24 h): > 50 µM | GI50 (HT-29 (CRC); Homo sapiens, HT-29, 48 h): > 50 µM | IC50 (HT-29 (CRC); Homo sapiens, HT-29, 48 h): > 50 µM | viability at 5 µM (HT-29 (CRC); Homo sapiens, HT-29, 48 h): 99.1 ± 2.4% | viability at 25 µM (HT-29 (CRC); Homo sapiens, HT-29, 48 h): 97.3 ± 2.1% | viability at 50 µM (HT-29 (CRC); Homo sapiens, HT-29, 48 h): 98.6 ± 3.1% | GI50 (HT-29 (CRC); Homo sapiens, HT-29, 72 h): > 50 µM | IC50 (HT-29 (CRC); Homo sapiens, HT-29, 72 h): > 50 µM | viability at 5 µM [2]: 82.2 ± 1.9% | viability at 25 µM [2]: 83.2 ± 7.2% | viability at 50 µM [2]: 85.5 ± 3.7% | viability at 5 µM (H1299 (lung carcinoma)): 87.5 ± 2.5% | viability at 25 µM (H1299 (lung carcinoma)): 72.5 ± 2.7% | viability at 50 µM (H1299 (lung carcinoma)): 84.9 ± 12.1% | IC50 (HCT-116 CRC cells; HCT-116, 24 h): > 50 µM | IC50 (HCT-116 CRC cells; HCT-116, 48 h): > 50 µM | IC50 (HCT-116 CRC cells; HCT-116, 72 h): > 50 µM | IC50 (CACO-2 CRC cells; Caco-2, 24 h): > 50 µM | IC50 (CACO-2 CRC cells; Caco-2, 48 h): > 50 µM | IC50 (CACO-2 CRC cells; Caco-2, 72 h): > 50 µM | IC50 (RKO CRC cells; 24 h): > 50 µM | IC50 (RKO CRC cells; 48 h): > 50 µM | IC50 (RKO CRC cells; 72 h): > 50 µM
